Measurements as given in PubChem BioAssay (NCI).
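Interpolation was linear, between the two tested concentrations surrounding the appropriate level; five concentrations were tested over 48 hours in 96-well plates. The concentration for 50% growth inhibition is given as GI50. The concentration for full growth arrest is given as TGI.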

Legend:
Test in all cases: DTP human tumour cell line panel, 48 h
[1] = test system: 786-0 renal
[2] = test system: A498 renal
[3] = test system: A549 NSCLC
[4] = test system: ACHN renal
[5] = test system: BT-549 breast
[6] = test system: CAKI-1 renal
[7] = test system: CCRF-CEM leukemia
[8] = test system: COLO 205 colon
[9] = test system: DU-145 prostate
[10] = test system: EKVX NSCLC
[11] = test system: HCC-2998 colon
[12] = test system: HCT-116 colon
[13] = test system: HCT-15 colon
[14] = test system: HL-60(TB) leukemia
[15] = test system: HOP-62 NSCLC
[16] = test system: HOP-92 NSCLC
[17] = test system: HS 578T breast
[18] = test system: HT29 colon
[19] = test system: IGROV1 ovarian
[20] = test system: K-562 leukemia
[21] = test system: KM12 colon
[22] = test system: LOX IMVI melanoma
[23] = test system: M14 melanoma
[24] = test system: MALME-3M melanoma
[25] = test system: MCF7 breast
[26] = test system: MDA-MB-231 breast
[27] = test system: MDA-MB-435
[28] = test system: MOLT-4 leukemia
[29] = test system: NCI-H226 lung
[30] = test system: NCI-H23 lung
[31] = test system: NCI-H460 lung
[32] = test system: NCI-H522 lung
[33] = test system: NCI/ADR-RES ovarian
[34] = test system: OVCAR-3 ovarian
[35] = test system: OVCAR-4 ovarian
[36] = test system: OVCAR-5 ovarian
[37] = test system: OVCAR-8 ovarian
[38] = test system: PC-3 prostate
[39] = test system: RPMI-8226 leukemia
[40] = test system: RXF 393 renal
[41] = test system: SF-268 CNS
[42] = test system: SF-295 CNS
[43] = test system: SF-539 CNS
[44] = test system: SK-MEL-2 melanoma
[45] = test system: SK-MEL-28 melanoma
[46] = test system: SK-MEL-5 melanoma
[47] = test system: SK-OV-3 ovarian
[48] = test system: SN12C renal
[49] = test system: SNB-19 CNS
[50] = test system: SNB-75 CNS
[51] = test system: SR leukemia
[52] = test system: SW-620 colon
[53] = test system: T-47D breast
[54] = test system: TK-10 renal
[55] = test system: U251 CNS
[56] = test system: UACC-257 melanoma
[57] = test system: UACC-62 melanoma
[58] = test system: UO-31 renal

**Q.** Which GI50 [1] does the source give for `COC(=O)c1c(C)c2n(c1C)C(=O)C(c1ccccc1)=C2` here?
**A.** 88.1 µM

**Q.** And the TGI [1]?
**A.** > 100 µM

**Q.** And the GI50 [2]?
**A.** > 84.7 µM

**Q.** What about the TGI [2] of the same molecule?
**A.** > 100 µM

**Q.** And the GI50 [3]?
**A.** > 81.2 µM

**Q.** What about the TGI [3] of the same molecule?
**A.** > 100 µM

**Q.** And the GI50 [4]?
**A.** > 87.6 µM

**Q.** And the TGI [4]?
**A.** > 100 µM

**Q.** What about the GI50 [5] of the same molecule?
**A.** 61.6 µM

**Q.** And the TGI [5]?
**A.** > 100 µM

**Q.** And the GI50 [6]?
**A.** > 47.9 µM

**Q.** And the TGI [6]?
**A.** > 100 µM

**Q.** And the GI50 [7]?
**A.** 51.8 µM

**Q.** What about the TGI [7] of the same molecule?
**A.** > 100 µM

**Q.** What about the GI50 [8] of the same molecule?
**A.** > 93 µM

**Q.** And the TGI [8]?
**A.** > 100 µM

**Q.** And the GI50 [9]?
**A.** > 100 µM

**Q.** And the TGI [9]?
**A.** > 100 µM

**Q.** What about the GI50 [10] of the same molecule?
**A.** 5.91 µM

**Q.** What about the TGI [10] of the same molecule?
**A.** > 100 µM

**Q.** What about the GI50 [11] of the same molecule?
**A.** > 57.8 µM

**Q.** What about the TGI [11] of the same molecule?
**A.** > 100 µM

**Q.** And the GI50 [12]?
**A.** 42.5 µM

**Q.** And the TGI [12]?
**A.** > 100 µM

**Q.** And the GI50 [13]?
**A.** 28.9 µM

**Q.** What about the TGI [13] of the same molecule?
**A.** > 100 µM

**Q.** And the GI50 [14]?
**A.** 53.8 µM

**Q.** And the TGI [14]?
**A.** > 100 µM

**Q.** What about the GI50 [15] of the same molecule?
**A.** 67.1 µM

**Q.** And the TGI [15]?
**A.** > 100 µM

**Q.** What about the GI50 [16] of the same molecule?
**A.** > 47.1 µM

**Q.** What about the TGI [16] of the same molecule?
**A.** > 100 µM

**Q.** What about the GI50 [17] of the same molecule?
**A.** 8.13 µM

**Q.** And the TGI [17]?
**A.** > 100 µM

**Q.** And the GI50 [18]?
**A.** 41.1 µM

**Q.** What about the TGI [18] of the same molecule?
**A.** > 100 µM

**Q.** And the GI50 [19]?
**A.** 34.4 µM

**Q.** And the TGI [19]?
**A.** > 100 µM

**Q.** What about the GI50 [20] of the same molecule?
**A.** 45.3 µM

**Q.** And the TGI [20]?
**A.** > 100 µM

**Q.** What about the GI50 [21] of the same molecule?
**A.** 49.7 µM

**Q.** What about the TGI [21] of the same molecule?
**A.** > 100 µM

**Q.** And the GI50 [22]?
**A.** 58.8 µM

**Q.** What about the TGI [22] of the same molecule?
**A.** > 100 µM

**Q.** What about the GI50 [23] of the same molecule?
**A.** > 71 µM

**Q.** What about the TGI [23] of the same molecule?
**A.** > 100 µM

**Q.** What about the GI50 [24] of the same molecule?
**A.** > 100 µM

**Q.** What about the TGI [24] of the same molecule?
**A.** > 100 µM

**Q.** What about the GI50 [25] of the same molecule?
**A.** 5.32 µM

**Q.** And the TGI [25]?
**A.** > 100 µM

**Q.** And the GI50 [26]?
**A.** 24.3 µM

**Q.** And the TGI [26]?
**A.** > 100 µM

**Q.** And the GI50 [27]?
**A.** 25.1 µM

**Q.** What about the TGI [27] of the same molecule?
**A.** > 100 µM

**Q.** And the GI50 [28]?
**A.** 30.8 µM

**Q.** What about the TGI [28] of the same molecule?
**A.** > 100 µM

**Q.** And the GI50 [29]?
**A.** > 100 µM

**Q.** And the TGI [29]?
**A.** > 100 µM

**Q.** What about the GI50 [30] of the same molecule?
**A.** > 58.3 µM

**Q.** And the TGI [30]?
**A.** > 100 µM

**Q.** What about the GI50 [31] of the same molecule?
**A.** 58.2 µM

**Q.** And the TGI [31]?
**A.** > 100 µM

**Q.** What about the GI50 [32] of the same molecule?
**A.** 58.2 µM

**Q.** And the TGI [32]?
**A.** > 100 µM

**Q.** And the GI50 [33]?
**A.** 53.2 µM

**Q.** What about the TGI [33] of the same molecule?
**A.** > 100 µM

**Q.** And the GI50 [34]?
**A.** 45.4 µM

**Q.** What about the TGI [34] of the same molecule?
**A.** > 100 µM

**Q.** And the GI50 [35]?
**A.** 50.4 µM

**Q.** And the TGI [35]?
**A.** > 100 µM

**Q.** And the GI50 [36]?
**A.** > 91.9 µM

**Q.** What about the TGI [36] of the same molecule?
**A.** > 100 µM

**Q.** And the GI50 [37]?
**A.** > 90.9 µM

**Q.** What about the TGI [37] of the same molecule?
**A.** > 100 µM

**Q.** And the GI50 [38]?
**A.** > 80.6 µM

**Q.** What about the TGI [38] of the same molecule?
**A.** > 100 µM

**Q.** What about the GI50 [39] of the same molecule?
**A.** 25.9 µM

**Q.** And the TGI [39]?
**A.** > 100 µM

**Q.** What about the GI50 [40] of the same molecule?
**A.** 55 µM

**Q.** What about the TGI [40] of the same molecule?
**A.** > 100 µM

**Q.** What about the GI50 [41] of the same molecule?
**A.** > 100 µM

**Q.** And the TGI [41]?
**A.** > 100 µM

**Q.** And the GI50 [42]?
**A.** > 61.9 µM

**Q.** And the TGI [42]?
**A.** > 100 µM

**Q.** And the GI50 [43]?
**A.** > 88.8 µM

**Q.** What about the TGI [43] of the same molecule?
**A.** > 100 µM

**Q.** And the GI50 [44]?
**A.** > 100 µM

**Q.** What about the TGI [44] of the same molecule?
**A.** > 100 µM

**Q.** What about the GI50 [45] of the same molecule?
**A.** > 87.8 µM

**Q.** What about the TGI [45] of the same molecule?
**A.** > 100 µM

**Q.** And the GI50 [46]?
**A.** 26.9 µM

**Q.** And the TGI [46]?
**A.** > 100 µM

**Q.** What about the GI50 [47] of the same molecule?
**A.** > 73.9 µM

**Q.** What about the TGI [47] of the same molecule?
**A.** > 100 µM

**Q.** And the GI50 [48]?
**A.** > 100 µM

**Q.** What about the TGI [48] of the same molecule?
**A.** > 100 µM

**Q.** And the GI50 [49]?
**A.** > 95.6 µM

**Q.** What about the TGI [49] of the same molecule?
**A.** > 100 µM

**Q.** And the GI50 [50]?
**A.** 30.1 µM

**Q.** What about the TGI [50] of the same molecule?
**A.** > 100 µM

**Q.** What about the GI50 [51] of the same molecule?
**A.** > 50.1 µM

**Q.** What about the TGI [51] of the same molecule?
**A.** > 100 µM

**Q.** What about the GI50 [52] of the same molecule?
**A.** 48.6 µM

**Q.** What about the TGI [52] of the same molecule?
**A.** > 100 µM

**Q.** And the GI50 [53]?
**A.** 9.38 µM

**Q.** And the TGI [53]?
**A.** > 100 µM

**Q.** What about the GI50 [54] of the same molecule?
**A.** 48.2 µM

**Q.** And the TGI [54]?
**A.** > 100 µM

**Q.** And the GI50 [55]?
**A.** 82.8 µM

**Q.** What about the TGI [55] of the same molecule?
**A.** > 100 µM

**Q.** What about the GI50 [56] of the same molecule?
**A.** > 100 µM

**Q.** And the TGI [56]?
**A.** > 100 µM

**Q.** And the GI50 [57]?
**A.** 28.1 µM

**Q.** And the TGI [57]?
**A.** > 100 µM

**Q.** What about the GI50 [58] of the same molecule?
**A.** 31.7 µM

**Q.** And the TGI [58]?
**A.** > 100 µM
